Data on four compounds can be found in EPA's ToxRefDB 2.

The subject of series [1] is rabbit. The settings on record: Prenatal developmental toxicity study, new zealand white, Oral, Gavage/Intubation, dose end: 19 GD.
Series [2] has as its system rat. The settings on record: Subchronic oral toxicity in rodents, sprague dawley, Feed, dose end: 90 day, group: systemic, systemic / hematology / platelet / platelet + systemic / urinalysis / ketones / ketones.
Series [3] deals with mouse. The following applies: Carcinogenicity, b6c3f1, Oral, Feed, dose end: 78 week, group: systemic.
Series [4] deals with mouse. The following applies: Subchronic oral toxicity in rodents, b6c3f1, Feed, dose end: 90 day, group: systemic.
Series [5] has as its system rabbit. The following applies: Prenatal developmental toxicity study, himalayan, Oral, Gavage/Intubation, dose end: 19 GD.
Series [6] deals with dog. The following applies: Chronic toxicity, beagle, Oral, Feed, dose end: 52 week, group: systemic.
For series [7], the system named is rat. The settings on record: Fertility (Segment I), wistar, Injection, Intraperitoneal, dose end: 7 day.
The subject of series [8] is rat. The following applies: Reproduction/developmental toxicity screening test; wistar; Injection; Intraperitoneal; dose end: 45 PND; group: parental; systemic / organ weight / ovary / nos.
Series [9] relates to mouse. The settings on record: Reproduction/developmental toxicity screening test; cd1; Injection; Intraperitoneal; dose end: 14 day; group: maternal; reproductive / reproductive performance / fertility / fertility + reproductive / reproductive performance / implantations / implantations + ….
The test system of series [10] is rat. The following applies: Subchronic oral toxicity in rodents, sprague dawley, Feed, dose end: 13 week, group: systemic, systemic / in life observation / body weight / body weight + systemic / in life observation / body weight / body weight gain + systemic / in….
The subject of series [11] is rat. The settings on record: Combined chronic toxicity/carcinogenicity, sprague dawley, Oral, Feed, dose end: 24 month, group: systemic.
Series [12] deals with rat. The following applies: Multigenerational reproductive toxicity study, sprague dawley, Oral, Feed, dose end: 2 generation.
The subject of series [13] is rat. The settings on record: Multigenerational reproductive toxicity study, sprague dawley, Oral, Gavage/Intubation, dose end: 2 generation.
The test system of series [14] is mouse. The following applies: Carcinogenicity; cd1; Oral; [Not Specified]; dose end: 18 month; group: systemic; systemic / in life observation / body weight / body weight + systemic / in life observation / body weight / body weight gain.
The test system of series [15] is dog. The following applies: Chronic toxicity; beagle; Oral; Feed; dose end: 24 month; group: systemic; systemic / in life observation / body weight / body weight gain + systemic / in life observation / food consumption / food efficiency + ….
Series [16] relates to rat. The settings on record: Prenatal developmental toxicity study, wistar, Oral, Gavage/Intubation, dose end: 19 GD.
Where [17] appears, read: group: developmental, systemic / in life observation / body weight / fetal weight.
Setting [18] is: group: maternal, reproductive / reproductive performance / aborted / aborted + reproductive / reproductive performance / postimplantation loss / ….
Setting [19] is: group: maternal, systemic / in life observation / body weight / body weight gain.
Setting [20] is: systemic / in life observation / body weight / body weight + systemic / organ weight / brain / nos + systemic / organ weight / kidney / nos.
Where [21] appears, read: systemic / in life observation / body weight / body weight gain.
Setting [22] is: systemic / in life observation / body weight / body weight gain + systemic / organ weight / kidney / absolute.
[23] abbreviates: group: maternal, systemic / in life observation / body weight / body weight gain + systemic / in life observation / food consumption / food consumption.
[24] abbreviates: group: maternal, systemic / in life observation / body weight / body weight gain + systemic / in life observation / food consumption / food consumption + ….
Where [25] appears, read: systemic / organ weight / liver / relative to body weight.
[26] abbreviates: systemic / organ weight / liver / relative to body weight + systemic / clinical chemistry / alanine aminotransferase (alt/sgpt) / alanine ….
Where [27] appears, read: group: maternal, reproductive / reproductive performance / estrous cycle / length.
Setting [28] is: group: parental, systemic / clinical chemistry / estradiol / estradiol, free + systemic / pathology microscopic / vagina / diestrus.
Setting [29] is: systemic / in life observation / body weight / body weight + systemic / in life observation / body weight / body weight gain + systemic / in….
[30] abbreviates: group: parental, systemic / in life observation / body weight / body weight.
Where [31] appears, read: group: reproductive, reproductive / reproductive performance / gestational length / gestational length.
The mark [32] stands for this setting: group: offspring, developmental / offspring survival late / lactation index / lactation index + developmental / offspring survival late / viability index / ….
[33] abbreviates: group: parental, systemic / in life observation / clinical signs / salivation + systemic / in life observation / body weight / body weight gain + systemic / ….
Setting [34] is: group: reproductive, reproductive / offspring survival early / litter size / litter size.
Where [35] appears, read: group: developmental, developmental / developmental malformation / bone / incomplete ossification.
The mark [36] stands for this setting: group: developmental, developmental / developmental malformation / bone / incomplete ossification + systemic / in life observation / body weight / fetal weight.
The mark [37] stands for this setting: group: maternal, systemic / in life observation / mortality / mortality + reproductive / offspring survival early / dead fetuses / dead fetuses.
The mark [38] stands for this setting: group: maternal, systemic / in life observation / mortality / mortality + reproductive / reproductive performance / postimplantation loss / postimplantation ….

By LOAEL is commonly meant the lowest dose or exposure tested at which an adverse effect was seen. The term NOAEL denotes the highest dose or exposure tested at which no adverse effect was seen. Turning to `COc1cc(OC)nc(NC(=O)NS(=O)(=O)c2ncccc2C(=O)N(C)C)n1` [Nicosulfuron], in the series with rabbit [1] (setting [17]), the LEL stood at 100 mg/kg/day, the LOAEL was found to be 1000 mg/kg/day, the NEL is less than 100 mg/kg/day and the NOAEL came out at 500 mg/kg/day. Further, in the series with rabbit [1] (setting [18]), the LOAEL turned out to be 500 mg/kg/day and the NOAEL amounted to 100 mg/kg/day. In the series with rabbit [1] (setting [19]), this compound returned an LEL of 100 mg/kg/day and an NEL of less than 100 mg/kg/day. In the series with rat [2], the LEL amounted to 15 mg/kg/day, the LOAEL is 15 mg/kg/day, the NEL is less than 15 mg/kg/day and the NOAEL is less than 15 mg/kg/day.
With `O=C(O)c1c(Cl)ccc2cc(Cl)cnc12` [Quinclorac], the LOAEL in the series on mouse [3] (systemic / in life observation / body weight / body weight) amounted to 150 mg/kg/day; with mouse [4] (setting [21]), 1000 mg/kg/day; with rabbit [5] (setting [17]), 600 mg/kg/day; in the series with rabbit [5] (setting [23]), 200 mg/kg/day; in the series on dog [6] (setting [26]), 469 mg/kg/day. For the same compound, the NEL in the series on mouse [3] (setting [20]) is 37.5 mg/kg/day; in the series on mouse [4] (setting [22]), less than 1000 mg/kg/day; in the series on rabbit [5] (setting [17]) it was 200 mg/kg/day; in the series with rabbit [5] (setting [24]), 70 mg/kg/day; in the series with dog [6] (setting [25]), less than 34.5 mg/kg/day. For the same compound, the no observed adverse effect level (NOAEL) in the series with mouse [3] (setting [20]) is 37.5 mg/kg/day; with mouse [4] (setting [21]), less than 1000 mg/kg/day; with rabbit [5] (setting [17]), 200 mg/kg/day; with rabbit [5] (setting [24]), 70 mg/kg/day; in the series on dog [6] (setting [26]), 140 mg/kg/day. Moreover, the LEL with mouse [3] (systemic / in life observation / body weight / body weight + systemic / organ weight / kidney / nos) was 150 mg/kg/day; with mouse [4] (setting [22]), 1000 mg/kg/day; with rabbit [5] (setting [17]), 600 mg/kg/day; with rabbit [5] (setting [23]), 200 mg/kg/day; in the series with dog [6] (setting [25]) it was 34.5 mg/kg/day.
As to `CC(=O)S[C@@H]1CC2=CC(=O)CC[C@]2(C)[C@H]2CC[C@@]3(C)[C@@H](CC[C@@]34CCC(=O)O4)[C@H]12` [Spironolactone], in the series on rat [7] (setting [27]), the LEL is 100 mg/kg/day, the LOAEL was more than 100 mg/kg/day, the NEL is less than 100 mg/kg/day and the NOAEL was not below 100 mg/kg/day. In the series on rat [7] (setting [28]), the LEL turned out to be 100 mg/kg/day, the LOAEL was more than 100 mg/kg/day, the NEL was less than 100 mg/kg/day and the NOAEL was not below 100 mg/kg/day. Besides, in the series with rat [8], the LEL stood at 100 mg/kg/day, the LOAEL is more than 100 mg/kg/day, the NEL is less than 100 mg/kg/day and the NOAEL was not below 100 mg/kg/day. Also, in the series with mouse [9], the LEL is 100 mg/kg/day, the LOAEL is more than 100 mg/kg/day, the NEL was less than 100 mg/kg/day and the NOAEL is not below 100 mg/kg/day.
Turning to `CCCOC(=O)NCCCN(C)C.Cl` [Propamocarb hydrochloride], the LEL came out at 716 mg/kg/day in the series on rat [10]; 682 mg/kg/day in the series with rat [11] (setting [29]); 85.3 mg/kg/day in the series on rat [12] (group: offspring, systemic / organ weight / brain / absolute); 407 mg/kg/day in the series on rat [12] (setting [30]); 467 mg/kg/day in the series on rat [12] (setting [31]); 1000 mg/kg/day in the series with rat [13] (setting [32]). In addition, the LEL worked out at 200 mg/kg/day with rat [13] (setting [33]); 1000 mg/kg/day with rat [13] (setting [34]); 95 mg/kg/day in the series on mouse [14]; 22.8 mg/kg/day in the series on dog [15]; 740 mg/kg/day in the series on rat [16] (setting [35]); 740 mg/kg/day in the series with rat [16] (setting [37]). Besides, the LOAEL in the series on rat [10] was 716 mg/kg/day; with rat [11] (setting [29]), 682 mg/kg/day; in the series with rat [12] (group: offspring, systemic / in life observation / body weight / offspring (pup) weight), 485 mg/kg/day; with rat [12] (setting [30]) it was 407 mg/kg/day; in the series with rat [12] (setting [31]), more than 467 mg/kg/day; with rat [13] (setting [32]) it was 1000 mg/kg/day. In addition, the LOAEL with rat [13] (setting [33]) was determined as 1000 mg/kg/day; in the series on rat [13] (setting [34]), 1000 mg/kg/day; with mouse [14], 95 mg/kg/day; in the series with dog [15] it was 22.8 mg/kg/day; in the series on rat [16] (setting [35]), 740 mg/kg/day; with rat [16] (setting [37]), 740 mg/kg/day. Moreover, the NEL in the series with rat [10] is 363 mg/kg/day; in the series on rat [11] (systemic / pathology microscopic / brain / vacuolization), 84 mg/kg/day; with rat [12] (group: offspring, systemic / organ weight / brain / absolute + systemic / in life observation / body weight / offspring (pup) weight + systemic / organ weight…) it was 14.2 mg/kg/day; with rat [12] (setting [30]), 65.4 mg/kg/day; in the series on rat [12] (setting [31]), 76.8 mg/kg/day; with rat [13] (setting [32]), 200 mg/kg/day. Moreover, the NEL was 50 mg/kg/day in the series with rat [13] (setting [33]); 200 mg/kg/day in the series with rat [13] (setting [34]); 12 mg/kg/day in the series with mouse [14]; less than 22.8 mg/kg/day in the series on dog [15]; 221 mg/kg/day in the series on rat [16] (setting [36]); 221 mg/kg/day in the series with rat [16] (setting [38]). Besides, the NOAEL in the series with rat [10] is 363 mg/kg/day; in the series with rat [11] (setting [29]) it was 84 mg/kg/day; in the series on rat [12] (group: offspring, systemic / in life observation / body weight / offspring (pup) weight + systemic / organ weight / brain / relative to body weight + systemic…), 75.4 mg/kg/day; with rat [12] (setting [30]), 65.4 mg/kg/day; with rat [12] (setting [31]) it was not below 467 mg/kg/day; in the series on rat [13] (setting [32]) it was 200 mg/kg/day. Moreover, the NOAEL in the series on rat [13] (setting [33]) was 200 mg/kg/day; in the series with rat [13] (setting [34]) it was 200 mg/kg/day; in the series with mouse [14] it was 12 mg/kg/day; in the series with dog [15] it was less than 22.8 mg/kg/day; in the series on rat [16] (setting [36]), 221 mg/kg/day; with rat [16] (setting [38]) it was 221 mg/kg/day.
